The values below come from patent US5219732A, “Antibody-mediated cofactor-driven reactions” (priority 1990, dated 1993).

Assay type in all cases: biochemical
Assay [1] relates to antibody 7G12-A10-G1-A12-mesohemin (Fe(III)mesoporphyrin) complex. Put plainly: Peroxidation of chromogenic peroxidase substrates with H2O2 catalyzed by antibody-mesohemin complex. Here is the method:
In further experiments, this antibody was used in the presence of H2 O2 to catalyze the oxidation of the following group of typical chromogenic peroxidase substrates: [drawing 7] Reaction mixtures contained 1 mM reducing substrate, 5 mM hydrogen peroxide, 0.5 mM Fe(III)mesoporphyrin chloride (mesohemin), 0.5% w/v Triton X-100, 4% v/v dimethyl sulfoxide (DMSO), and 90 mM tris acetate, pH 8.0, and were incubated at 10° C. Antibody samples contained 0.2 mg/mL (1.3 μM) protein.
The monitored wavelength and Δε value for each reaction, and the plot in FIG. 2 showing the corresponding absorption curves for each comparison are as follows:
The rate of o-dianisidine oxidation was examined at several o-dianisidine concentrations, ranging from 0.05 mM to 2.5 mM, using 10 mM H2 O2 in each case and other reaction conditions as described above. The initial rate of peroxidation v is shown in FIG. 3 as a function of o-dianisidine concentration for both reactions catalyzed by mesohemin alone (open squares) and reactions catalyzed by the antibody-mesohemin complex (filled squares).
Saturation kinetics for the o-dianisidine peroxidation reaction were determined at an o-dianisidine concentration of 0.6 mM, with the remaining reaction conditions as described above. Lineweaver-Burk plots are shown in FIG. 4 for both free mesohemin (open squares) and antibody-mesohemin complex (filled squares) as a function of H2 O2 concentrations. The rates shown are based on an estimated molar extinction coefficient (ε) of 7500 for oxidized o-dianisidine.

For assay [2], the system named is antibody (elicited against pyridoxal/p-nitrophenylalanine Schiff base analog hapten) which resulted in the highest rate of amino acid production in the …. As to the kind of experiment: Inhibition by hapten of the transamination between p-nitrophenylpyruvic acid and pyridoxamine. To be noted: 100 μM of the hapten. As for the experimental part:
(§1) A hapten was formed by first reacting pyridoxal with p-nitrophenylalanine in the presence of aqueous NaBH4 at pH 8.5 to form a stable Schiff base analog. The latter was then treated with thiourea in 48% HBr followed by aqueous ammonium hydroxide to form the disulfide dimer, which was then reduced and subjected to disulfide exchange with a carrier protein to yield a hapten-protein conjugate in which the hapten was the Schiff base analog.
(§2) Antibodies were elicited against the conjugate in accordance with conventional procedures, and seven antibodies specifically binding to the hapten itself were selected. Inhibition tests were conducted in which p-nitrophenylalanine and pyridoxamine individually were contacted with the antibodies to determine whether or not binding between the antibodies and the hapten-protein conjugate was inhibited in an ELISA assay.
(§3) The same seven antibodies were then used in the transamination reaction between p-nitrophenylpyruvic acid and pyridoxamine to form p-nitrophenylalanine. Reactions were performed in two separate buffer solutions, using 1 mM each of p-nitrophenylpyruvic acid and pyridoxamine, 10 μM antibody (IgG) and 250 μM m-nitrobenzylalcohol as an internal standard in each case. The first buffer solution consisted of 10 mM phosphate and 150 mM NaCl at pH 7.5, and the second consisted of 100 mM imidazole and 100 mM NaCl at pH 7.0.

The test system of assay [3] is antibody (elicited against pyridoxal/p-nitrophenylalanine Schiff base analog hapten) which enhanced the bimolecular condensation reaction. The assay is described as above. To be noted: 100 μM of the hapten. As for the experimental part:
as §1, §2, §3

For assay [4], the system named is antibody 7G12-A10-G1-A12 plus 1 μM Fe(III)-mesoporphyrin. Put plainly: Oxidation of pyrogallol, absorption at 420 nm monitored over time (FIG. 1). The note with it: 5 μM NMMP. Here is the method: In one experiment, the antibody was used for oxidation of pyrogallol as determined spectrometrically by monitoring […]. The reaction was as follows: [drawing 6] The product has a maximum absorption at 420 nm.
(a) 1 μM Fe(III)-mesoporphyrin only;
(c) the antibody plus 1 μM Fe(III)-mesoporphyrin and 5 μM NMMP; and
(d) the antibody plus 1 μM Fe(III)-mesoporphyrin only.

Assay [5] deals with monoclonal antibody 7G12-A10-G1-A12 elicited against N-methyl mesoporphyrin (NMMP). As to the kind of experiment: Inhibition of antibody-catalyzed chelation of metal ions by mesoporphyrin IX. The note with it: inhibition of the antibody's catalytic ability (metal chelation by mesoporphyrin IX); read-out: inhibition constant (Ki). The text has this: N-Methyl mesoporphyrin (NMMP), a commercially available species obtained from Porphyrin Products, Logan, Utah, having the formula [drawing 3] was conjugated to a carrier protein by treatment of the NMMP with N-hydroxysuccinimide (NHS) and dicyclohexylcarbodiimide, followed by addition of the resulting NHS ester to a solution of the protein. Monoclonal antibodies were elicited in accordance with conventional procedures known to those skilled in the art, and purified by Protein A affinity chromatography.
The inhibition constant (Ki) for the iron(III)mesoporphyrin was less than 10 nM. The term "mesoporphyrin" is used here as an abbreviation for the more complete term "mesoporphyrin IX," and the abbreviations "MP" and "MPIX" are used interchangeably to refer to this species. Thus, "Fe(III)-mesoporphyrin," "iron(III)mesoporphyrin" and "Fe(III)MPIX" are equivalent, and "N-methyl nesoporphyrin," "NMMP" and "N-MeMPIX" and likewise equivalent.

The mark [6] stands for this setting: peroxidation of the named reducing substrate by the antibody-mesohemin complex.

Regarding `CCn1c(=NN=c2sc3cc(S(=O)(=O)O)ccc3n2CC)sc2cc(S(=O)(=O)O)ccc21` [2,2'-azinobis(3-ethylbenzothiazoline-6-sulfonic acid)], the “Kcat /Km” value in assay [1] (setting [6]) came to 233 M⁻¹ s⁻¹.

In general, Km refers to the substrate concentration at which the rate is half of its maximum. As a reminder, the kcat is the number of substrate molecules converted per active site and unit of time at saturation. As for `OO` [H2 O2, hydrogen peroxide], in assay [1] (o-dianisidine peroxidation, 0.6 mM o-dianisidine, H2O2 concentration varied (Lineweaver-Burk, FIG. 4), pH 8.0, 10° C.), the Michaelis constant (Km) was 24 mM. In addition, the “Kcat /Km” value in assay [1] (o-dianisidine peroxidation, 0.6 mM o-dianisidine, H2O2 concentration varied, pH 8.0, 10° C.) was determined as 274 m^-1 s^-1. Moreover, the kcat in assay [1] (o-dianisidine peroxidation, 0.6 mM o-dianisidine, H2O2 concentration varied, pH 8.0, 10° C., ε estimated 7500) was 394 min⁻¹.

For `Cc1ncc(CO)c(CNC(Cc2ccc([N+](=O)[O-])cc2)C(=O)O)c1O` (stereo not shown) [Schiff base analog], the inhibition of transamination entry in assay [2] and in assay [3] was “noticeably inhibited” throughout.

As to `Oc1cccc(O)c1O` [pyrogallol], in assay [1] (setting [6]), the “Kcat /Km” value was 122 M⁻¹ s⁻¹.

On to N-Methyl mesoporphyrin [NMMP], for which, in assay [4], the “effect of NMMP on the pyrogallol oxidation rate” value is “destroying the catalytic effect”. The “effect of hapten on antibody catalysis of peroxidation” value in assay [1] (hapten in a stoichiometric amount relative to antibody binding sites, each of the four reactions) is “completely blocked antibody catalysis”.

In general, Ki refers to the dissociation constant of the complex between target and ligand, obtained from inhibition or displacement. With iron(III)mesoporphyrin, the Ki in assay [5] was less than 10 nM.
